Test results: publication PMC7089970, “Structural insights into catalytic mechanism and product delivery of cyanobacterial acyl-acyl carrier protein reductase” (Nature Communications, 2020)
“Also recorded” adds a separate entry of the source. Like-named read-outs stand apart in the source and are kept apart here.

What was measured:
AAR [1] = settings: ITC
Text: To verify this assumption, we measured the binding affinity of K^+ ions with AAR, using ITC method.
AAR to perform all the experiments. The small organic molecule, such as stearoyl-CoA, can be used in high concentration, which is more favorable for either co-crystallization with AAR(-ADO) or soaking with the AAR(-ADO) crystals. In comparison, stearoyl-ACP is an 80-residue protein with a stearoyl chain linked to the 4’-phosphopanthetheine on a Ser residue, while the crystallization of protein-protein complexes (AAR-ACP) is much difficult than that of protein-ligand
(AAR-stearoyl-CoA) complexes.
ACP protein covalently linked with stearic chain (stearoyl-ACP), according to the […]
Considering the similar chemical structure of the acyl part of acyl-ACP and acyl-CoA, and the time-consuming experimental processes for obtaining the stearoyl-ACP protein and […]
In our originally submitted manuscript, we supposed that Mg2+ ion binds with AAR near its active site, but we […]
performed ITC experiment to confirm whether Mg2+ ions bind with AAR.
4. The authors assumed that Mg2+ and K+ ions bind to AAR in the crystals. However,
Therefore, it is required to confirm that Mg2+ and/or K+ really bind to AAR using […]
We have now performed the ITC

AAR [2] = settings: cited from earlier work
AAR-wt = target: T1, AAR-wt (Synechococcus elongatus, UniProt Q54765); assay: Isothermal titration calorimetry, stearoyl-CoA (650 uM) titrated into 30 uM AAR in 25 mM Tris-HCl pH 7.6, 1 mM TCEP, without KCl.; format: binding; settings: read-out: KD value (µM), AAR (−K+)
T1 construct: gene Synpcc7942_1594; full length (341 residues), C-terminal His-tag removed by TEV protease; expressed in E. coli BL21(DE3) with chaperone plasmid pG-KJE8
Procedure: (§1) The binding affinity of AAR with ADO or stearoyl-CoA was measured by isotheral titration calorimetry (ITC) using a MicroCal Auto-ITC200 microcalorimeter (GE Healthcare Bio-sciences, Pittsburgh, PA). […] Wild type or mutants of ADO (or AAR) were placed into the sample cell (200 µL working volume) at a final concentration of 30 µM (60 µM for AAR) and was titrated with successive 2-µL injections of AAR protein with concentration of 500 µM (or ADO protein with concentration of 1 mM). Titrating AAR (500 µM) or ADO (1 mM) into the same buffer was performed as a control to determine the background correction. […] Injection of stearyol-CoA into the reaction buffer was performed as control to determine background correction.

[3] = target: T2, aldehyde-deformylating oxygenase from Synechococcus elongatus PCC 7942, wild type, His-tag removed (Synechococcus elongatus PCC 7942, UniProt Q54764 1-231); assay: ITC
T2 chain: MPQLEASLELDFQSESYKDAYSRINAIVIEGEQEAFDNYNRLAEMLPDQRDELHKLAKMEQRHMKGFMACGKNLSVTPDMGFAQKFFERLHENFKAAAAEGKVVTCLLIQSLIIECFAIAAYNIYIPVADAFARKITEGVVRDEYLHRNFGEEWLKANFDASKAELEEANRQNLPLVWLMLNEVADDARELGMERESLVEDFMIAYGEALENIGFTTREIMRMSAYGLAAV

[4] = target: T3, acyl-ACP reductase from Synechococcus elongatus PCC 7942, C294S mutant (Synechococcus elongatus PCC 7942, UniProt Q54765 1-341, C294S); assay: crystal structure; AAR incubated with stearoyl-CoA (1:3), then with ADO (1:1), gel filtration; crystals in 0.1 M HEPES pH 7.5, 20% PEG8000; NADPH form by soaking; settings: both partners purified
T3 construct: acyl-ACP reductase (AAR), Synechococcus elongatus PCC 7942, gene Synpcc7942_1594; complete protein of 341 residues; also called AAR C294S; AAR_(stearoyl-CoA); source: E. coli BL21(DE3), purified (same protocol as wild-type AAR); incubated with stearoyl-CoA before ADO was added; not shown: His6, C-terminal, cleaved
T3 sequence (looked up): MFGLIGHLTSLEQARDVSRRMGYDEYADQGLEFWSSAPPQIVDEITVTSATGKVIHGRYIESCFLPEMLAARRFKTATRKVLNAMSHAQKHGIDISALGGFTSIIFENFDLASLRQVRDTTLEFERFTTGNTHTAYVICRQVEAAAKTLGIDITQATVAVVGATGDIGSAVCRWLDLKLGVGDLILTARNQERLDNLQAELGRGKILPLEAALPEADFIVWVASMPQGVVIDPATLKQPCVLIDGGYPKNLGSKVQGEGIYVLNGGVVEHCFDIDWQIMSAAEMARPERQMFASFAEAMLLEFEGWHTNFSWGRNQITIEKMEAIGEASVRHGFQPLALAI

AAR [5] = target: T4, AAR (Synechococcus elongatus, UniProt Q54765); assay: ITC binding of ADO (wild type and mutants) with AAR; set-up: species or system Synechococcus elongatus PCC 7942
T4 construct: modeled the complete AAR protein containing 341 amino acid residues; 22-residue C-terminal peptide with His6 (G + […]) (C, cleaved yes); made in house; host or cells: E. coli BL21(DE3) co-transformed with chaperone plasmid pG-KJE8
T4 sequence (Q54765 1-341): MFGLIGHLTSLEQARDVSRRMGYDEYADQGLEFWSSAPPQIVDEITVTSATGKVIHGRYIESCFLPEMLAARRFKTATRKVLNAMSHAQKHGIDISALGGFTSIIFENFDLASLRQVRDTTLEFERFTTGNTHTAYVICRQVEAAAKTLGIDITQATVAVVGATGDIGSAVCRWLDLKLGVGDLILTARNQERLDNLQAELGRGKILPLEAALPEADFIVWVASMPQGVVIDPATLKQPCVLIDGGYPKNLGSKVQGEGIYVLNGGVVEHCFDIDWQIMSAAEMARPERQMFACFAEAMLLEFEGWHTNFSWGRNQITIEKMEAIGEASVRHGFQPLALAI
Procedure: as §1

[6] = AAR incubated with wild type or triple mutant ADO
Procedure: For measuring the enzymatic activity of AAR, the AAR protein at the concentration of 20 µM was mixed with 2 mM NADPH and 0.5 mM stearoyl-CoA in a 100 µL reaction buffer containing 20 mM HEPES pH 7.5, 200 mM KCl, 0.5 mM MgCl2, and 0.5 mM TCEP. […] The ferrodoxin and FNR are recombinant proteins from cyanobacterial strains Synechocystis sp. […] PCC 7942, respectively, and were added into the reaction buffer for supplying electrons for the reduction of ADO. The mixture was incubated at 30 °C for 5 h. The produced octadecanal and heptadecane were extracted by addition of an equal volume of ethyl acetate (Sigma Aldrich, HPLC grade) and centrifuged at 13,000 × g for 15 min at room temperature. The extraction step was repeated for three times. The extracted supernatant was pooled together, dried with nitrogen gas, and then resolved in 20 µL ethyl acetate for the GC-MS measurement.
The concentration of octadecanal and heptadecane was measured using an Agilent 7890 A gas chromatograph coupled with an Agilent 7000B QQQ mass spectrometer. A total of 2 µL sample was loaded with the helium as the carrier gas onto the chromatographic column HP-5ms (30 mM × 0.25 mM ID, 0.25 μm; Agilent) at the flow rate of 1.3 ml min^−1. The injector temperature maintained at 300 °C with spotless mode. The GC oven settings were as follows: initial temperature 75 °C, held for 5 min, then at 40 °C min^−1, increased to 325 °C and held for 5 min. Ionization mode of EI (70 eV, 230 °C) and full scan of 50–550 m/z were chosen for MS detection. The standard curve was plotted based on the measuring of the commercial octadecanal and heptadecane (Sigma Aldrich) at a gradient concentration (from 3.125 to 75 µg mL^−1). Data were acquired and processed using MassHunter Workstation Software and the NIST database.

In the case of `[K+]` [K^+], the “binding of metal ion with AAR (in words)” value (AAR [1]) is given as “failed to detect signs of AAR binding K^+ ions”, the “binding of metal ion with AAR (in words)” value (AAR [1]; listed as K+) is given as “do not stably/directly bind AAR” and the “stimulation of AAR activity by monovalent metal ions” value (AAR [2]) is given as 10–20 fold.

In the case of `CCCCCCCCCCCCCCCCCC(=O)SCCNC(=O)CCNC(=O)[C@H](O)C(C)(C)COP(=O)(O)OP(=O)(O)OC[C@H]1O[C@@H](n2cnc3c(N)ncnc32)[C@H](O)[C@@H]1OP(=O)(O)O` [stearoyl-CoA, stearoyl-coenzyme A], the Kd (AAR-wt) is reported as 2.3 ± 0.38 µM.

B1: acyl-acyl carrier protein (acyl-ACP) reductase from Synechococcus elongatus PCC 7942, wild type, His-tag removed (enzyme)
chain: MFGLIGHLTSLEQARDVSRRMGYDEYADQGLEFWSSAPPQIVDEITVTSATGKVIHGRYIESCFLPEMLAARRFKTATRKVLNAMSHAQKHGIDISALGGFTSIIFENFDLASLRQVRDTTLEFERFTTGNTHTAYVICRQVEAAAKTLGIDITQATVAVVGATGDIGSAVCRWLDLKLGVGDLILTARNQERLDNLQAELGRGKILPLEAALPEADFIVWVASMPQGVVIDPATLKQPCVLIDGGYPKNLGSKVQGEGIYVLNGGVVEHCFDIDWQIMSAAEMARPERQMFACFAEAMLLEFEGWHTNFSWGRNQITIEKMEAIGEASVRHGFQPLALAI
B1 showed a Ka [3] of 496000 M⁻¹.

B2: aldehyde-deformylating oxygenase from Synechococcus elongatus PCC 7942, wild type, His-tag removed (enzyme, UniProt Q54764 1-231, looked up)
chain: MPQLEASLELDFQSESYKDAYSRINAIVIEGEQEAFDNYNRLAEMLPDQRDELHKLAKMEQRHMKGFMACGKNLSVTPDMGFAQKFFERLHENFKAAAAEGKVVTCLLIQSLIIECFAIAAYNIYIPVADAFARKITEGVVRDEYLHRNFGEEWLKANFDASKAELEEANRQNLPLVWLMLNEVADDARELGMERESLVEDFMIAYGEALENIGFTTREIMRMSAYGLAAV
notes: aldehyde-deformylating oxygenase (ADO), Synechococcus elongatus PCC 7942, gene Synpcc7942_1593; Constructed and expressed 'similarly as' SeAAR in the modified pET24a (C-terminal TEV site and His6 peptide); ENLYFQ probably stays after cleavage (surmised); also called ADO; SeADO; not shown: His6, C-terminal, cleaved
B2: binds [4].

B3: ADO E196A/E200A/D201A (protein)
chain: MPQLEASLELDFQSESYKDAYSRINAIVIEGEQEAFDNYNRLAEMLPDQRDELHKLAKMEQRHMKGFMACGKNLSVTPDMGFAQKFFERLHENFKAAAAEGKVVTCLLIQSLIIECFAIAAYNIYIPVADAFARKITEGVVRDEYLHRNFGEEWLKANFDASKAELEEANRQNLPLVWLMLNEVADDARELGMERASLVAAFMIAYGEALENIGFTTREIMRMSAYGLAAV
modifications: left off: His6, C-terminal, cleaved
For B3, the “binding of ADO mutant with AAR (in words)” value (AAR [5]) was “completely lose their capability to bind AAR; also recorded: completely abolished the capability of ADO to bind with AAR” and the “yield of octadecanal compared with the wild type ADO reaction system (in words)” value [6] was “similar”.
